Source: article PMC7239831, “Suitability of Artificial Membranes in Lipolysis-Permeation Assays of Oral Lipid-Based Formulations” (Pharmaceutical Research, 2020)

What was measured:
[1] = Integrity assay with static digest matrix (LY mass transfer); assay type: in vitro ADME; conditions: GIT-0 membranes
Protocol: Six samples of 4 ml were taken during dispersion and digestion phases of single-compartment in vitro lipolysis (Fig. 1a) of a formulation over a period of 40 min. The formulation was of type IIIB-MC (medium chain length triglyceride component, 8–10 carbons) according to the Lipid Formulation Classification System (LFCS) ([27]), see Table I for composition. […] To visualize membrane integrity, Lucifer Yellow (LY) in DMSO solution was added to each sample to a final LY concentration of 10 μM and 0.1% DMSO. LY is highly hydrophilic; its permeation through intact lipid membranes should therefore be negligible. The sample tubes were then vortexed, and shaken at 450 rpm at 37°C until further use.
Digestion samples were dispensed (1.2 ml) into the donor compartments of Transwell inserts treated to form artificial membranes. Negative controls comprised only blank digestion medium or lipolysis buffer (both containing LY, 10 μM) in the donor compartment. Positive controls were untreated inserts composed of naked polycarbonate filters, or GIT-0 solution added to pre-wet filters (disrupts membrane formation). The receiver compartments contained 2 ml of either plain phosphate buffer (PB, 10 mM), Acceptor Sink Buffer (20 mM HEPES, 1% w/v SDS), or PB supplemented with 4% w/w bovine serum albumin (BSA). All receiver buffers were adjusted to pH 7.40.
From examination of mass transfer profiles, membrane damage was evaluated by Area Under the Curve (AUC) values of LY mass transfer over time. The criteria were that an LY AUC > 10 nmol min cm^−2 was considered to indicate major membrane disruption, while an LY AUC < 1 nmol min cm^−2 was considered to indicate an intact membrane.
LY presence was detected using fluorescence (Spark or Safire^2 plate readers, Tecan, Austria) at 428 and 536 nm wavelength for excitation and emission, respectively. Samples were diluted 1:2 in ice-cold acetonitrile and centrifuged (4°C, 2465 g for 20 min) to precipitate protein content.

[2] = Integrity assay under dynamic digestion conditions (LY mass transfer); assay type: in vitro ADME; conditions: LiDo on PVDF; up to two hours
Protocol: HDM, GIT-0 and LiDo membranes were subjected to in situ lipolysis of the IIIB-MC LBF in a 6-well culture plate format. Transwell inserts (diameter of 24 mm) were used for polycarbonate filters, and inserts were made in-house to hold the PVDF filters (diameter of 25 mm). For these lipolysis experiments, a modified digestion medium with greater buffering capacity was used. The digestion medium contained 200 mM Tris-maleate in these experiments to maintain pH within 0.3 units of the initial value of the lipolysis buffer (pH 6.5) over one hour of digestion (Table S2, Supplementary Material), since no autotitration could be used in the setup. LBF was weighed into a glass tube, and 10 ml of this modified digestion medium spiked with 10.3 μl of LY in DMSO solution (10 mM) was added and vortexed. […]
GIT-0 and LiDo membranes were also evaluated in a large-scale (75 mm diameter) in-house developed lipolysis-permeation device named “ENA” ([19]) in order to explore whether these two lipid mixtures with theoretically similar compositions and production methods also yielded similar results. […]
LY presence was detected using fluorescence (Spark or Safire^2 plate readers, Tecan, Austria) at 428 and 536 nm wavelength for excitation and emission, respectively. […]

[3] = In vitro lipolysis-permeation assay of fenofibrate-loaded LBFs in the ENA device (porcine pancreatin); assay type: in vitro ADME
Protocol: Three formulations representing LFCS types IIIA-MC, IIIA-LC (long chain fatty acid component), and type IV (Table I) were assayed for their performance using artificial membranes in the ENA device. No more than one week before the assay, excipients were heated to 37°C before being weighed into a glass vial. The vial was capped with argon, vortexed, and then shaken overnight (450 rpm, 37°C). The formulations were then loaded with fenofibrate (80 mg/g) in the same manner, and shaken until complete dissolution.
The loaded formulations were weighed separately and then dispensed into ENA donor compartments (Fig. 1b) that had been prefilled with digestion medium spiked with LY to 10 μM (0.1% DMSO). Samples were taken from both compartments during dispersion (0–10 min) and digestion (10–100 min). Samples from the donor compartment were immediately filtered through a hydrophilic nylon syringe filter (Whatman PuraDisc 13, pore size 0.1 μm) to separate precipitates and oil droplets from fenofibrate in free solution and in colloidal aggregates, using the same procedures as those described in Juenemann et al. and Stillhart et al. ([28],[29]). The syringe filters were then flushed through with room temperature acetonitrile to recover precipitated fenofibrate. […] Phases were instead separated through centrifugation (37°C, 21,000 g for 15 min) for these samples. Receiver compartment samples were then quantified using UPLC-MS, and donor samples using HPLC-UV.
Fenofibrate was analyzed using a UV-DAD coupled HPLC (1290 Infinity, Agilent Technologies) with a Zorbax Eclipse XDB-C18 column (4.6 × 100 mm, Agilent Technologies) kept at 40°C (injection volume 20 μl). The mobile phase consisted of sodium acetate buffer (25 mM, pH 5.0) in acetonitrile solution (2:8 v/v) with isocratic flow (1 ml/min). UV absorbance was monitored at a wavelength of 287 nm. The retention time was 3.32 min. Sample preparation consisted of 100x dilution in mobile phase and a centrifugation step (21,000 g, 15 min, 25°C) to purify the matrix. […]

[4] = set-up: method as in PMID 23500116, doi:10.1016/j.jddst.2016.06.013, PMID 28826878; conditions: cited from earlier work
Caco-2 monolayer = experiment: Caco-2 based lipolysis-permeation assay in ENA (data re-analyzed from Keemink et al.); conditions: average over formulations

Lucifer Yellow CH dilithium salt [LY]
LY mass transfer AUC15-60 min ([1]; Fig. 2c, Acceptor Sink Buffer in receiver per legend, 30 min digestion sample): < LOQ
LY mass transfer AUC15-60 min ([1]; Fig. 2c, Acceptor Sink Buffer in receiver per legend, dispersion sample of IIIB-MC LBF): < LOQ
LY mass transfer AUC15-60 min ([1]; Fig. 2d, PB with 4% BSA in receiver per legend, 30 min digestion sample): < LOQ
LY mass transfer AUC15-60 min ([1]; Fig. 2d, PB with 4% BSA in receiver per legend, dispersion sample of IIIB-MC LBF): < LOQ
LY permeation through membrane [2]: did not allow detectable levels

CC(C)(Oc1ccc(C(=O)c2ccc(Cl)cc2)cc1)C(=O)O [fenofibric acid]
Detection of fenofibric acid (control of API degradation during lipolysis and sample storage) ([3]; UPLC-MS, all samples): no fenofibric acid could be detected

CC(C)OC(=O)C(C)(C)Oc1ccc(C(=O)c2ccc(Cl)cc2)cc1 [fenofibrate]
Expected flux in vivo relative to flux over LiDo/Caco-2 ([3]; based on expected permeability in human small intestine): 10 fold
Flux of fenofibrate over LiDo relative to flux of cinnarizine over Permeapad ([3]; under comparable conditions, average, Permeapad data ref 40): 334 fold
Permeability (in words) [4]: highly permeable
Caco-2 permeability relative to LiDo after adjusting for filter porosity (ε) (Caco-2 monolayer): 1.8 fold
Ratio between Caco-2 and LiDo permeability (Caco-2 monolayer; uncorrected Papp): 0.42
